{
  "source": "patent US8808713B2",
  "about": "“Compositions for pulmonary delivery of long-acting β2 adrenergic receptor agonists and associated methods and systems” (Pearl Thereapeutics, Inc., priority 2009, dated 2014)",
  "key": {"[1]": {"assay": "Visual observation of suspension quality / co-suspension in glass vials (settling, centrifugation)", "format": "physicochemical", "experimental": "The canisters were crimp sealed with 63 μl valves (# BK 357, Bespak, King's Lynn, UK) and filled with 12.4 g of HFA 134a (1,1,1,2-tetrafluoroethane) (Ineos Fluor, Lyndhurst, UK) by overpressure through the valve stem. After injecting the propellant, the canisters were sonicated for 15 seconds and agitated on a wrist action shaker for 30 minutes. The canisters were fitted with polypropylene actuators with a 0.3 mm orifice (# BK 636, Bespak, King's Lynn, UK). Additional inhalers for visual observation of suspension quality were prepared using glass vials.\nThe canisters were crimp sealed with 63 μl valves (Valois DF30/63 RCU, Les Vaudreuil, France) and filled with 9.5 mL of HFA 134a (Ineos Fluor, Lyndhurst, UK) by overpressure through the valve stem. After injecting the propellant, the canisters were sonicated for 15 seconds and agitated on a wrist action shaker for 30 minutes. Additional inhalers with suspending particles only were manufactured as control for each configuration.\nMetered dose inhalers were prepared by weighing the target masses of micronized active agent particles and suspending particles into coated glass vials with 15 mL volume. […] For each configuration, additional glass bottles were filled with the respective amount of FF active agent particles without any suspending particles. […]"}, "[2]": {"test_system": "patients with mild to moderate COPD", "assay": "Multi-center clinical trial, single-dose crossover: spirometry (FEV1) and safety", "conditions": "18 μg via Spiriva Handihaler"}},
  "data": [
    {"smiles": "OCc1cc(C(O)CNCCCCCCOCCCCc2ccccc2)ccc1O", "note": "(stereo not drawn) [SX, 4-hydroxy-α1-[[[6-(4-phenylbutoxy)hexyl]amino]methyl]-1,3-benzenedimethanol, 1-hydroxy-2-naphthalenecarboxylate]", "values": [
      {"measurement": "Visual observation: sedimentation of SX crystals", "setting": "[1]; glass vials heated up to 30° C.-35° C. in a water bath", "result": "sedimented rapidly"}
    ]},
    {"smiles": "COc1ccc(CC(C)NCC(O)c2ccc(O)c(NC=O)c2)cc1.O=C(O)/C=C/C(=O)O", "note": "(racemic) [FF, (±)-2-hydroxy-5-[(1RS)-1-hydroxy-2-[[(1RS)-2-(4-methoxyphenyl)-1-methylethyl]-amino]ethyl]formanilide fumarate]", "values": [
      {"measurement": "Visual observation: sedimentation of crystalline FF", "setting": "[1]; glass vials, HFA 134a, left to settle 24 h", "result": "sedimented quickly"}
    ]},
    {"smiles": "C[N+]1(C)[C@@H]2C[C@@H](OC(=O)C(O)(c3cccs3)c3cccs3)C[C@H]1[C@@H]1O[C@@H]12", "note": "[tiotropium]", "values": [
      {"measurement": "Mean time to ≧10% improvement in FEV1", "setting": "[2]", "result": "approximately 3 hours"}
    ]}
  ]
}
